Data published in patent US4278467A, “Substitutive additives for isopropyl alcohol in fountain solution for lithographic offset printing” (priority 1979, dated 1981).
Values after ≈ are worked out from the molar mass of the structure shown. Read-outs that look alike come from different tables or passages of the source. Blank lines part the entries; values can stand above or below the compound they belong to.

Key:
[1] = Solubility of selected materials in water, expressed in percent by weight at 20° C.; type: physicochemical
[2] = Solubility of water in the material, percent by weight at 20° C.; type: physicochemical; details: water dissolved in the additive
[3] = 20° C.; cited from earlier work
[4] = cited from earlier work
[5] = Surface tension as measured by the duNouy tensiometer device; type: physicochemical
Source text: In continuous dampening systems, the dampening solution has a surface tension of from about 40 to 50 dynes/cm or less as measured by the duNouy tensiometer device. Isopropyl alcohol has an undiluted surface tension of about 21 dynes/cm and isopropyl alcohol at about 10 to 30 percent by volume in water has a surface tension of between 40 to 50 dynes/cm. […] The point where the optimum ink-water balance control is obtained depends on a combination of complicated factors not yet precisely known. These factors include the design and speed of the press, design of the dampening system, the nature and amount of concentrates that are used in the dampening solution, the nature of the form being printed and the experience of the operator. A typical lower limit of effective use of isopropyl alcohol in continuous flow dampening systems is between about 10 to 15 percent by volume. This corresponds to surface tension values in the range of about 40 to 50 dyne/cm.

[6] = Solubility of the material in heptane; type: physicochemical; details: 20° C.

solubility ([1]; water, read-out: Sol. in Water): 42 mg/mL (≈ 287 mM) | Sol. of Water in (material) [2]: 12 percent by weight
SMILES: CCCC(O)C(CC)CO (stereo not drawn) [2-ethyl-1,3-hexanediol]

surface tension ([5]; about 10 to 30 percent by volume in water): 40 to 50 dynes/cm | surface tension ([5]; lower limit of effective use, about 10 to 15 percent by volume): 40 to 50 dyne/cm | surface tension ([5]; undiluted): about 21 dynes/cm
SMILES: CC(C)O [isopropyl alcohol]
vapor pressure [3]: about 30 mm of Hg | heat of vaporization ([4]; at its boiling point of 82° C.): 164 callories/gm

Sol. in Water [1]: 1.0 percent by weight | Sol. in Heptane [6]: Complete | Sol. of Water in (material) [2]: 19 percent by weight
SMILES: CCCCCCOCCO [n-hexyl Cellosolve, n-hexoxyethylene glycol]

SMILES: O [water]
vapor pressure [3]: ~18 mm of Hg | heat of vaporization ([4]; at 100° C.): 540 calories/gm
